Measured values as given in publication PMC5382265, “Macrocycle peptides delineate locked-open inhibition mechanism for microorganism phosphoglycerate mutases” (Nature Communications, 2017).
Where two headings read alike, the source gives them in different places. Positions of bridges follow the written chain, without caps; N, C: chain ends. Non-standard residues stand in square brackets, D forms with d. Residues, ends and D or L forms follow the SMILES beside them.

Key:
E. coli iPGM [1] = target: T1, E. coli iPGM (Escherichia coli, UniProt P37689); assay: biochemical
H. sapiens dPGM = H. sapiens dPGM (Homo sapiens, UniProt P18669); assay: Gradient elution moving boundary electrophoresis (GEMBE) assay; assay type: biochemical; details: 2.1 nM H. sapiens dPGM
E. coli iPGM [2] = target: T1, E. coli iPGM; assay: biochemical; remark: listed apart in the source
C. elegans iPGM = target: T2, C. elegans iPGM (Caenorhabditis elegans, UniProt G5EFZ1); assay: PGM enzyme-coupled bioluminescent end point assay (Kinase-Glo Plus); assay type: biochemical
T2 sequence (G5EFZ1 1-539): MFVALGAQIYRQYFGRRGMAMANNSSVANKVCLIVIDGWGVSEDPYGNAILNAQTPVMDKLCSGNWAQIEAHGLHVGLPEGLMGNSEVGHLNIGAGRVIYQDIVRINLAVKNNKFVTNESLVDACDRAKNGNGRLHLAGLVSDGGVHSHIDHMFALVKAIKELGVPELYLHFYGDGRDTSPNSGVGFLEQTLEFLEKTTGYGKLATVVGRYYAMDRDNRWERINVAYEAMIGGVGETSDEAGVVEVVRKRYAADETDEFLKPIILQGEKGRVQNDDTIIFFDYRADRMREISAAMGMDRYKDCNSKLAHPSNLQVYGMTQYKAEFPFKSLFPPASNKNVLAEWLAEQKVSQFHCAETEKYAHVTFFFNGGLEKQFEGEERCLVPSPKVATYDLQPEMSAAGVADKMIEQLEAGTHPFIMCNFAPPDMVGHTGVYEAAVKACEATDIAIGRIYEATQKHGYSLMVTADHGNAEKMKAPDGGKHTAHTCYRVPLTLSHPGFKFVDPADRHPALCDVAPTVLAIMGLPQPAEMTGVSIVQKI

B. malayi iPGM = B. malayi iPGM (Brugia malayi, UniProt Q4VWF8); assay: biochemical
O. volvulus iPGM = O. volvulus iPGM (Onchocerca volvulus, UniProt I6LDA6); assay: biochemical
[3] = test system: iPGM orthologues and dPGM isozymes; assay type: biochemical
[4] = target: E. coli cofactor-independent phosphoglycerate mutase (iPGM) (E. coli) (UniProt P37689)
[5] = pIC50, apparent C. elegans iPGM
[6] = pIC50, apparent O. volvulus iPGM

Sequence of O. volvulus iPGM (I6LDA6 whole entry, looked up): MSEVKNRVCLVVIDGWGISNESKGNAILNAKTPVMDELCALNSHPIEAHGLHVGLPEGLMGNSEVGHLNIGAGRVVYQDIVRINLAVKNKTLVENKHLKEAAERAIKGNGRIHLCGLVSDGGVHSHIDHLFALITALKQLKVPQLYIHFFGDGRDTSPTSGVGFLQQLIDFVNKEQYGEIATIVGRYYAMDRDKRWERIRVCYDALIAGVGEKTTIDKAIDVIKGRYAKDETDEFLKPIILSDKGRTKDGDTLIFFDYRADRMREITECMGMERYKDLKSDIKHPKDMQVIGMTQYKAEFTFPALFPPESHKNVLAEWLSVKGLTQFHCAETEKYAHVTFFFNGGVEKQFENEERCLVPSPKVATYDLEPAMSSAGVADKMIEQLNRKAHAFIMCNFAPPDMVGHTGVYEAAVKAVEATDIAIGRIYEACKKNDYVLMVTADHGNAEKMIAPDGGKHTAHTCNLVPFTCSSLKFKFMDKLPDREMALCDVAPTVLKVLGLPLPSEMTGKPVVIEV
Sequence of B. malayi iPGM (Q4VWF8 whole entry, looked up): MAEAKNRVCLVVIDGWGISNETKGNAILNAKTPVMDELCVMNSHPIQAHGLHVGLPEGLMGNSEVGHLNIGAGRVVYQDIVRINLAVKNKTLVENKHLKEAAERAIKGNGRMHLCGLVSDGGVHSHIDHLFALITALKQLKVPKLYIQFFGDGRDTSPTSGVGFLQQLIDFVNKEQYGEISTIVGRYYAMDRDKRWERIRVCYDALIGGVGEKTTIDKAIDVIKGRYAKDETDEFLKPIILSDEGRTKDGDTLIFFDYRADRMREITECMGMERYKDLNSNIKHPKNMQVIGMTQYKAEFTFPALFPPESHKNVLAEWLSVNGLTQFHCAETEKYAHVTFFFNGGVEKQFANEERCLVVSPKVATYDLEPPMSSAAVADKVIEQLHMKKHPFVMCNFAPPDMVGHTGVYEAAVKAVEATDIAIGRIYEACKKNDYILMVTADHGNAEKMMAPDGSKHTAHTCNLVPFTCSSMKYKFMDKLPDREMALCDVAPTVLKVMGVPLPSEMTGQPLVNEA
T1 sequence (P37689 whole entry, looked up): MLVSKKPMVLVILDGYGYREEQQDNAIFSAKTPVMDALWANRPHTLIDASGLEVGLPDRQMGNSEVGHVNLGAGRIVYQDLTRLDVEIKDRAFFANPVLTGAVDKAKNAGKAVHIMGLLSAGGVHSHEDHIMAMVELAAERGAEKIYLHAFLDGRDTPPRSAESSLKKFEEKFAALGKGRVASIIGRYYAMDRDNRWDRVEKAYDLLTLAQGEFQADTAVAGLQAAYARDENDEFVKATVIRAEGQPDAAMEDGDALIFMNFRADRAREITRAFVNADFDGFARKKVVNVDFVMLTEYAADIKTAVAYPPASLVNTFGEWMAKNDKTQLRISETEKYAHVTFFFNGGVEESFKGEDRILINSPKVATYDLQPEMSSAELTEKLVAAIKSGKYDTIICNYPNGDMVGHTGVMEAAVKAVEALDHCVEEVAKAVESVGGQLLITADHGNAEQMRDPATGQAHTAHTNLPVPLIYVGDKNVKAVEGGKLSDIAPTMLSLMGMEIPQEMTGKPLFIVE
Sequence of H. sapiens dPGM (P18669 whole entry): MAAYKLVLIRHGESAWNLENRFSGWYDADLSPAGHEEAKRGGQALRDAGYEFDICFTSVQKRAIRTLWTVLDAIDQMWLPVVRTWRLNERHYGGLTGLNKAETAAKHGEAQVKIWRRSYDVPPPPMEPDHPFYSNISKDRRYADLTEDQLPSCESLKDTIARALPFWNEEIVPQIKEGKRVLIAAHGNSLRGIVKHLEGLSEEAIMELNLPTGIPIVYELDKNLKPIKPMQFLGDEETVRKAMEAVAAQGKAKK
Sequence of E. coli cofactor-independent phosphoglycerate mutase (iPGM) (E. coli) (P37689 whole entry): as the sequence (P37689 whole entry, looked up) above

Compound | IC50 (E. coli iPGM [2]; pIC50, apparent E. coli iPGM) [nM] | IC50 (E. coli iPGM [2]; pIC50 E. coli iPGM) [nM] | IC50 (C. elegans iPGM; [5]) [nM] | IC50 (C. elegans iPGM; pIC50 C. elegans iPGM) [nM] | IC50 (B. malayi iPGM; pIC50, apparent B. malayi iPGM) [nM] | IC50 (B. malayi iPGM; pIC50 B. malayi iPGM) [nM] | IC50 (O. volvulus iPGM; pIC50 O. volvulus iPGM) [nM] | other results
CC(C)C[C@H](NC(=O)[C@H](Cc1ccc(O)cc1)NC(=O)[C@@H]1CSCC(=O)N[C@H](Cc2ccc(O)cc2)C(=O)N[C@@H](CC(=O)O)C(=O)N[C@@H](Cc2ccc(O)cc2)C(=O)N2CCC[C@H]2C(=O)NCC(=O)N[C@@H](CC(=O)O)C(=O)N[C@@H](Cc2ccc(O)cc2)C(=O)N1)C(=O)N[C@@H](Cc1ccc(O)cc1)C(=O)NCC(=O)N[C@H](C(=O)N[C@@H](CS)C(=O)NCC(N)=O)[C@@H](C)O [Ce-2] | 1.66 | 0.55 | 2.24 | 0.251 |  |  |  | IC50 (E. coli iPGM [1]): 3.24 nM; pIC50 from the GEMBE assay (H. sapiens dPGM): no apparent activity
CC(C)C[C@@H]1NC(=O)[C@@H](Cc2ccc(O)cc2)NC(=O)CSC[C@@H](C(=O)N[C@@H](CO)C(=O)N[C@H](C(=O)N[C@@H](CS)C(=O)NCC(N)=O)[C@@H](C)O)NC(=O)[C@H](CC(N)=O)NC(=O)[C@@H]2CCCN2C(=O)[C@H](Cc2c[nH]c3ccccc23)NC(=O)[C@H](CC(=O)O)NC1=O [Bm-5] ({CH2CO}-[dY]LDWPNCSTCG-NH2; thioether N-7) | 2880 |  | 2510 |  | 692 |  |  | IC50 (O. volvulus iPGM; [6]): 1020 nM
CC[C@H](C)[C@@H]1NC(=O)[C@H](CCC(=O)O)NC(=O)[C@@H]2CCCN2C(=O)[C@H](C)NC(=O)[C@H](CC(N)=O)NC(=O)[C@@H]2CCCN2C(=O)[C@H](Cc2c[nH]c3ccccc23)NC(=O)[C@H](CO)NC(=O)[C@@H](Cc2ccc(O)cc2)NC(=O)CSC[C@@H](C(=O)N[C@@H](CS)C(=O)NCC(N)=O)NC(=O)[C@H](CCCCN)NC(=O)[C@H](Cc2c[nH]c3ccccc23)NC1=O [Bm-1] ({CH2CO}-[dY]SWPNAPEIWKCCG-NH2; thioether N-12) | 4900 |  | 5010 |  | 1290 |  |  | IC50 (O. volvulus iPGM; [6]): 1320 nM
CC(C)C[C@H](NC(=O)[C@H](Cc1ccc(O)cc1)NC(=O)[C@@H]1CSCC(=O)N[C@H](Cc2ccc(O)cc2)C(=O)N[C@@H](CC(=O)O)C(=O)N[C@@H](Cc2ccc(O)cc2)C(=O)N2CCC[C@H]2C(=O)NCC(=O)N[C@@H](CC(=O)O)C(=O)N[C@@H](Cc2ccc(O)cc2)C(=O)N1)C(=O)N[C@@H](Cc1ccc(O)cc1)C(=O)NCC(=O)N[C@H](C(=O)N[C@@H](CS)C(N)=O)[C@@H](C)O [Ce-2a] |  | 0.263 |  | 0.174 |  | 0.324 | 0.209 | IC50 (B. malayi iPGM; pIC50, M B. malayi iPGM): 8.51 nM; IC50 (O. volvulus iPGM; pIC50, M O. volvulus iPGM): 49 nM; IC50 (E. coli iPGM [2]; pIC50, M E. coli iPGM): 3.09 nM; IC50 (C. elegans iPGM; pIC50, M C. elegans iPGM): 4.07 nM
^Ac-DYDYPGDYSYLY-NH2 [Ce-L2d, linear form of Ce-2d] |  |  |  |  |  |  |  | inhibitory activity on the PGM panel, in words [3]: completely inactive on all iPGMs
CC(C)C[C@H](NC(=O)[C@H](Cc1ccc(O)cc1)NC(=O)[C@@H]1CSCC(=O)N[C@H](Cc2ccc(O)cc2)C(=O)N[C@@H](CC(=O)O)C(=O)N[C@@H](Cc2ccc(O)cc2)C(=O)N2CCC[C@H]2C(=O)NCC(=O)N[C@@H](CC(=O)O)C(=O)N[C@@H](Cc2ccc(O)cc2)C(=O)N1)C(=O)N[C@@H](Cc1ccc(O)cc1)C(=O)NCC(=O)N[C@H](C(N)=O)[C@@H](C)O [Ce-2b] |  | 10.5 |  | 15.8 |  | 692 | 2450 | 
CC(C)C[C@@H]1NC(=O)[C@@H](Cc2ccc(O)cc2)NC(=O)CSC[C@@H](C(=O)N[C@@H](CC(N)=O)C(=O)N[C@H](C(=O)N[C@@H](CS)C(=O)NCC(N)=O)[C@@H](C)O)NC(=O)[C@H](CC(N)=O)NC(=O)[C@@H]2CCCN2C(=O)[C@H](Cc2c[nH]c3ccccc23)NC(=O)[C@H](CCC(=O)O)NC1=O [Bm-4] ({CH2CO}-[dY]LEWPNCNTCG-NH2; thioether N-7) | 2750 |  | 2450 |  | 575 |  |  | IC50 (O. volvulus iPGM; [6]): 794 nM
CC(C)C[C@H](NC(=O)[C@H](Cc1ccc(O)cc1)NC(=O)[C@@H]1CSCC(=O)N[C@H](Cc2ccc(O)cc2)C(=O)N[C@@H](CC(=O)O)C(=O)N[C@@H](Cc2ccc(O)cc2)C(=O)N2CCC[C@H]2C(=O)NCC(=O)N[C@@H](CC(=O)O)C(=O)N[C@@H](Cc2ccc(O)cc2)C(=O)N1)C(=O)N[C@@H](Cc1ccc(O)cc1)C(=O)NCC(=O)N[C@H](C(=O)N[C@@H](CO)C(=O)NCC(N)=O)[C@@H](C)O [Ce-2S] |  | 10 |  | 8.32 |  | 525 | 1020 | IC50 (B. malayi iPGM; pIC50, M B. malayi iPGM): 407 nM; IC50 (O. volvulus iPGM; pIC50, M O. volvulus iPGM): 447 nM; IC50 (E. coli iPGM [2]; IC50): ~10 nM; IC50 (C. elegans iPGM): ~10 nM; IC50 (C. elegans iPGM; pIC50, M C. elegans iPGM): 12 nM
CC(C)C[C@H](NC(=O)[C@H](Cc1ccc(O)cc1)NC(=O)[C@@H]1CSCC(=O)N[C@H](Cc2ccc(O)cc2)C(=O)N[C@@H](CC(=O)O)C(=O)N[C@@H](Cc2ccc(O)cc2)C(=O)N2CCC[C@H]2C(=O)NCC(=O)N[C@@H](CC(=O)O)C(=O)N[C@@H](Cc2c[nH]cn2)C(=O)N1)C(=O)N[C@@H](Cc1ccc(O)cc1)C(=O)NCC(=O)N[C@H](C(=O)N[C@@H](CS)C(=O)NCC(N)=O)[C@@H](C)O [Ce-1] | 4.17 |  | 3.98 |  | 12 |  |  | IC50 (O. volvulus iPGM; pIC50, M O. volvulus iPGM): 24.5 nM
Ce-2S (Ce-2 with Cys14Ser) (peptide) |  |  |  |  |  |  |  | IC50 of inhibition of PGM activity, enzyme-coupled bioluminescent assay [4]: 10 nM
CC(C)C[C@H](NC(=O)[C@H](Cc1ccc(O)cc1)NC(=O)[C@@H]1CSCC(=O)N[C@H](Cc2ccc(O)cc2)C(=O)N[C@@H](CC(=O)O)C(=O)N[C@@H](Cc2ccc(O)cc2)C(=O)N2CCC[C@H]2C(=O)NCC(=O)N[C@@H](CC(=O)O)C(=O)N[C@@H](Cc2ccc(O)cc2)C(=O)N1)C(=O)N[C@@H](Cc1ccc(O)cc1)C(=O)NCC(N)=O [Ce-2c] |  | 10.5 |  | 22.9 |  | 1170 | 3890 | 
CC(C)C[C@H](NC(=O)[C@H](Cc1ccc(O)cc1)NC(=O)[C@@H]1CSCC(=O)N[C@H](Cc2ccc(O)cc2)C(=O)N[C@@H](CC(=O)O)C(=O)N[C@@H](Cc2ccc(O)cc2)C(=O)N2CCC[C@H]2C(=O)NCC(=O)N[C@@H](CC(=O)O)C(=O)N[C@@H](Cc2ccc(O)cc2)C(=O)N1)C(N)=O [Ce-2e] ({CH2CO}-[dY]DYPGDYCYL-NH2; thioether N-8) |  | 53.7 |  | 69.2 |  | 2950 |  | potency decrease [3]: ~100 fold
